Several values for one entry are separate records, joined by “and”; a condition that tells them apart may be missing. Equal entries are not always repeated.
Assays:
[1] = test system: SJSA-1 cells; assay: MTT proliferation assay, SJSA-1; assay type: cell-based, human
[2] = test system: SJSA-1 xenograft; conditions: mouse, in vivo
[3] = test system: SJSA-1 xenograft; assay: SJSA-1 Bone Osteosarcoma subcutaneous xenograft model
[4] = SBT-100 5.0 mg/kg BID 14 days IP, Doxorubicin 7.0 mg/kg days 1, 8 and 14 IP
[5] = study day 9 post implant, IP, SBT-100 5.0 mg/kg BIDx14 and/or Doxorubicin 7.0 mg/kg days 1, 8, 14
[6] = study day 13 post implant, IP, SBT-100 5.0 mg/kg BIDx14 and/or Doxorubicin 7.0 mg/kg days 1, 8, 14
[7] = study day 16 post implant, IP, SBT-100 5.0 mg/kg BIDx14 and/or Doxorubicin 7.0 mg/kg days 1, 8, 14
[8] = study day 20 post implant, IP, SBT-100 5.0 mg/kg BIDx14 and/or Doxorubicin 7.0 mg/kg days 1, 8, 14
[9] = study day 21 post implant, IP, SBT-100 5.0 mg/kg BIDx14 and/or Doxorubicin 7.0 mg/kg days 1, 8, 14
[10] = study day 23 post implant, IP, SBT-100 5.0 mg/kg BIDx14 and/or Doxorubicin 7.0 mg/kg days 1, 8, 14
[11] = study day 27 post implant, IP, SBT-100 5.0 mg/kg BIDx14 and/or Doxorubicin 7.0 mg/kg days 1, 8, 14

For `COc1cccc2c1C(=O)c1c(O)c3c(c(O)c1C2=O)C[C@@](O)(C(=O)CO)C[C@@H]3O[C@H]1C[C@H](N)[C@H](O)[C@H](C)O1` [Doxorubicin, reference compound], the “inhibition of SJSA-1 cells” value ([1]; 72 hours, SBT-100 at 50 and 100 μg/ml, Doxorubicin at all dose levels tested) was “significant dose-dependent inhibition”, the inhibition at 0.0313 µM ([1]; Homo sapiens, SJSA-1, 72 h) was 28% and the inhibition at 0.0625 µM ([1]; Homo sapiens, SJSA-1, 72 h) was 29%. It also gave an inhibition at 0.313 µM ([1]; Homo sapiens, SJSA-1, 72 h) of 31%, an inhibition at 0.5 µM ([1]; Homo sapiens, SJSA-1, 72 h) of 36% and an inhibition at 0.625 µM ([1]; Homo sapiens, SJSA-1, 72 h) of 29%. It also gave an inhibition at 1 µM ([1]; Homo sapiens, SJSA-1, 72 h) of 49%, an inhibition at 5 µM ([1]; Homo sapiens, SJSA-1, 72 h) of 52% and an inhibition at 10 µM ([1]; Homo sapiens, SJSA-1, 72 h) of 45%. For the same compound, the “Mean Abs (±SD)” value ([1]; Table 72 (experiment 5a), Doxorubicin 0.0313 μM alone, 72 hours) was 0.281 ± 0.031, the “Mean Abs (±SD)” value ([1]; Table 72 (experiment 5a), Doxorubicin 0.0625 μM alone, 72 hours) was 0.277 ± 0.035 and the “Mean Abs (±SD)” value ([1]; Table 72 (experiment 5a), Doxorubicin 0.5 μM alone, 72 hours) was 0.248 ± 0.038. For the same compound, the “Mean Abs (±SD)” value ([1]; Table 72 (experiment 5a), Doxorubicin 1 μM alone, 72 hours) was 0.197 ± 0.012, the “Mean Abs (±SD)” value ([1]; Table 73 (Experiment 2, 5b), Doxorubicin 0.313 μM alone, 72 hours) was 0.519 ± 0.004 and the “Mean Abs (±SD)” value ([1]; Table 73 (Experiment 2, 5b), Doxorubicin 0.625 μM alone, 72 hours) was 0.530 ± 0.024. The “Mean Abs (±SD)” value ([1]; Table 73 (Experiment 2, 5b), Doxorubicin 5.00 μM alone, 72 hours) was 0.358 ± 0.003, the “Mean Abs (±SD)” value ([1]; Table 73 (Experiment 2, 5b), Doxorubicin 10.0 μM alone, 72 hours) was 0.414 ± 0.007 and the “number surviving at the end of the study” value ([2]; Hsd: Athymic Nude-Fox1nu, 14 days) was 2. For the same compound, the “Are the survival curves sig different?” value [2] was “Yes”, the “% T/C” value [3, 4] was 17.91% and the “mean tumor growth inhibition at the end of the study” value [3, 4] was 84.71%. The “mean tumor size (±S.E.) at termination” value [3, 4] was 215.84±52.32, the “mean tumor size (±SE) at the last day of dosing” value [3, 4] was 118.18±11.13 and the tumor doubling time ([3]; control 8.22) was 13.32. The “% Inh Mean” value [3, 5] was 58.36%, the “% Inh Med” value [3, 5] was 32.94% and the “Mean Abs (tumor measurement)” value [3, 5] was 16.52 mm^3. The “Tumor Measurements, single animals” value [3, 5] was 23.19 mm^3 and 14.32 mm^3 and 16.69 mm^3 and 0.00 mm^3 (2×) and 46.20 mm^3, the “% Inh Mean” value [3, 6] was 3.16% and the “% Inh Med” value [3, 6] was −23.18%. For the same compound, the “% T/C” value [3, 6] was 107.14%, the “Mean Abs (tumor measurement)” value [3, 6] was 76.72 mm^3 and the “Median Abs (tumor measurement)” value [3, 6] was 72.93 mm^3. For the same compound, the “Tumor Measurements, single animals” value [3, 6] was 48.43 mm^3 and 20.77 mm^3 and 132.27 mm^3 and 104.16 mm^3 and 25.81 mm^3 and 132.66 mm^3 and 72.93 mm^3, the “% Inh Mean” value [3, 7] was 55.02% and the “% Inh Med” value [3, 7] was 55.11%. For the same compound, the “% T/C” value [3, 7] was 51.96%, the “Mean Abs (tumor measurement)” value [3, 7] was 78.09 mm^3 and the “Median Abs (tumor measurement)” value [3, 7] was 73.50 mm^3. For the same compound, the “Tumor Measurements, single animals” value [3, 7] was 102.31 mm^3 and 37.33 mm^3 and 105.65 mm^3 and 118.75 mm^3 and 57.55 mm^3 and 51.55 mm^3 and 73.50 mm^3, the “% Inh Mean” value [3, 8] was 74.31% and the “% Inh Med” value [3, 8] was 71.58%. For the same compound, the “% T/C” value [3, 8] was 30.35%, the “Mean Abs (tumor measurement)” value [3, 8] was 79.33 mm^3 and the “Median Abs (tumor measurement)” value [3, 8] was 72.16 mm^3. For the same compound, the “Tumor Measurements, single animals” value [3, 8] was 61.44 mm^3 and 68.71 mm^3 and 114.42 mm^3 and 93.72 mm^3 and 75.00 mm^3 and 69.85 mm^3 and 72.16 mm^3, the “% Inh Mean” value [3, 9] was 70.41% and the “% Inh Med” value [3, 9] was 61.77%. For the same compound, the “% T/C” value [3, 9] was 36.16%, the “Mean Abs (tumor measurement)” value [3, 9] was 118.18 mm^3 and the “Tumor Measurements, single animals” value [3, 9] was 85.16 mm^3 and 115.50 mm^3 and 133.21 mm^3 and 119.94 mm^3 and 160.89 mm^3 and 94.40 mm^3. For the same compound, the “% Inh Mean” value [3, 10] was 72.79%, the “% Inh Med” value [3, 10] was 71.86% and the “% T/C” value [3, 10] was 30.43%. The “Mean Abs (tumor measurement)” value [3, 10] was 141.94 mm^3, the “Median Abs (tumor measurement)” value [3, 10] was 129.81 mm^3 and the “Tumor Measurements, single animals” value [3, 10] was 105.84 mm^3 and 142.33 mm^3 and 217.29 mm^3 and 151.94 mm^3 and 116.95 mm^3 and 117.30 mm^3. For the same compound, the “% Inh Mean” value [3, 11] was 84.71%, the “% Inh Med” value [3, 11] was 81.05% and the “% T/C” value [3, 11] was 17.91%. The “Mean Abs (tumor measurement)” value [3, 11] was 215.84 mm^3, the “Median Abs (tumor measurement)” value [3, 11] was 215.84 mm^3 and the “Tumor Measurements, single animals” value [3, 11] was 163.53 mm^3 and 268.16 mm^3.
